Measurements published in patent US20240059671A1, “TYROSINE KINASE 2 (TYK2) DEGRADATION COMPOUNDS AND METHODS OF USE” (CULLGEN (SHANGHAI), INC., priority 2020, published 2024).
Entries after “also recorded” stand apart in the source; their conditions may differ.

Target: TYK2 (Homo sapiens, UniProt P29597)
Test: TYK2 protein degradation in NOMO-1 cells by immunoblotting
Format: cell-based
Parameters: endogenous in cells
Conditions: for TYK2 Degradation (NOMO-1, 10 nM) / TYK2 Degradation (NOMO-1, 100 nM): NOMO-1 cells
Summary of the method: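 NOMO-1 cells in RPMI 1640 with 10% FBS were exposed to compound at 0.1–1000 nM for 16 hours. TYK2 levels in RIPA lysates were measured by SDS-PAGE immunoblot with chemiluminescent detection and band densitometry.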

Sequence of TYK2 (P29597 whole entry): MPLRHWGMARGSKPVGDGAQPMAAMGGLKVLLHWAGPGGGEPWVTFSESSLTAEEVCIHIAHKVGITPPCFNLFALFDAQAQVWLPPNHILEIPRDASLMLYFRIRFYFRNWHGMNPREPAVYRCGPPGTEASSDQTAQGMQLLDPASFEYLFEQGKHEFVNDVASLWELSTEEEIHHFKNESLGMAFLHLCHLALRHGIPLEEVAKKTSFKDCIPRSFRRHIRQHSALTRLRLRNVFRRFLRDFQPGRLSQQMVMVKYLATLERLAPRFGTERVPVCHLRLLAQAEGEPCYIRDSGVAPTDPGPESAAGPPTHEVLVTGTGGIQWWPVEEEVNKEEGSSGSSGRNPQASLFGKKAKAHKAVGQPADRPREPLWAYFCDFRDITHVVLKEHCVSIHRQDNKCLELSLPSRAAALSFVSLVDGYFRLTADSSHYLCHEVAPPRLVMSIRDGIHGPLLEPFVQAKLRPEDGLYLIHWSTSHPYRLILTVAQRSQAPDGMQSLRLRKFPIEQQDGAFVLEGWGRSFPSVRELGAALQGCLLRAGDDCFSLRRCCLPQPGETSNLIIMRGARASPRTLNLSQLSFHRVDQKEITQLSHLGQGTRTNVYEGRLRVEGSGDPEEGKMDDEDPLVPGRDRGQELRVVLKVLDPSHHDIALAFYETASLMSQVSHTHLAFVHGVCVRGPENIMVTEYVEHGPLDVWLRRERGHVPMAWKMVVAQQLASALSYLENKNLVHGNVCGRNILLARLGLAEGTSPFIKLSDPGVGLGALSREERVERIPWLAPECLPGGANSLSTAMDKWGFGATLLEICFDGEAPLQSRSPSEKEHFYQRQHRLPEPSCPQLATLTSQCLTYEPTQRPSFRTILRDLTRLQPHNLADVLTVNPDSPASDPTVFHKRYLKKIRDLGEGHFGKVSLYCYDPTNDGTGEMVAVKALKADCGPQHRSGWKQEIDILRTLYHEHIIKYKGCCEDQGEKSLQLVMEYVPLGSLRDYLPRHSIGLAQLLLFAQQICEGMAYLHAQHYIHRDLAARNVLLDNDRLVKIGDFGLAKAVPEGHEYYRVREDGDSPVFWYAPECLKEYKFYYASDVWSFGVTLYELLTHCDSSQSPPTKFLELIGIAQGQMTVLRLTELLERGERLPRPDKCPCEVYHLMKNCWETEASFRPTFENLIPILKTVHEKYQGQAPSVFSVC

| SMILES | TYK2 Degradation (NOMO-1, 10 nM) | TYK2 Degradation (NOMO-1, 100 nM) | Reduction of TYK2 protein levels over a dose range (FIG. 2) (NOMO-1 cells, 0.1, 1, 10, 100 and 1000 nM, 16 hours) |
| --- | --- | --- | --- |
| CNC(=O)c1nnc(Nc2ccc(N3CCN(C4CCN(C(=O)CCCCC(=O)N[C@H](C(=O)N5C[C@H](O)C[C@H]5C(=O)N[C@@H](C)c5ccc(-c6scnc6C)cc5)C(C)(C)C)CC4)CC3)cn2)cc1Nc1cccc(-c2ncn(C)n2)c1OC [CPD-147, 6-((5-(4-(1-(6-(((S)-1-((2S,4R)-4-Hydroxy-2-(((S)-1-(4-(4-methylthiazol-5-yl)phenyl)ethyl)carbamoyl)pyrrolidin-1-yl)-3,3-dimethyl-1-oxobutan-2-yl)amino)-6-oxohexanoyl)piperidin-4-yl)piperazin-1-yl)pyridin-2-yl)amino)-4-((2-methoxy-3-(1-methyl-1H-1,2,4-triazol-3-yl)phenyl)amino)-N-methylpyridazine-3-carboxamide] | B (B: <60% TYK2 degradation, and >20% TYK2 degradation) | A (A: ≥60% TYK2 degradation) |  |
| CNC(=O)c1nnc(Nc2ccc(C(=O)NCCNc3cccc4c3C(=O)N(C3CCC(=O)NC3=O)C4=O)cn2)cc1Nc1cccc(-c2ncn(C)n2)c1OC (stereo not shown) [CPD-152, 6-((5-((2-((2-(2,6-Dioxopiperidin-3-yl)-1,3-dioxoisoindolin-4-yl)amino)ethyl)carbamoyl)pyridin-2-yl)amino)-4-((2-methoxy-3-(1-methyl-1H-1,2,4-triazol-3-yl)phenyl)amino)-N-methylpyridazine-3-carboxamide] |  | A (A: ≥60% TYK2 degradation) |  |
| CNC(=O)c1nnc(Nc2ccc(C(=O)NCCCNc3cccc4c3C(=O)N(C3CCC(=O)NC3=O)C4=O)cn2)cc1Nc1cccc(-c2ncn(C)n2)c1OC (stereo not shown) [CPD-153, 6-((5-((3-((2-(2,6-Dioxopiperidin-3-yl)-1,3-dioxoisoindolin-4-yl)amino)propyl)carbamoyl)pyridin-2-yl)amino)-4-((2-methoxy-3-(1-methyl-1H-1,2,4-triazol-3-yl)phenyl)amino)-N-methylpyridazine-3-carboxamide] |  | C (C: ≤20% TYK2 degradation) |  |
| CNC(=O)c1nnc(Nc2ccc(C(=O)NCCCCNc3cccc4c3C(=O)N(C3CCC(=O)NC3=O)C4=O)cn2)cc1Nc1cccc(-c2ncn(C)n2)c1OC (stereo not shown) [CPD-154, 6-((5-((4-((2-(2,6-Dioxopiperidin-3-yl)-1,3-dioxoisoindolin-4-yl)amino)butyl)carbamoyl)pyridin-2-yl)amino)-4-((2-methoxy-3-(1-methyl-1H-1,2,4-triazol-3-yl)phenyl)amino)-N-methylpyridazine-3-carboxamide] |  | B (B: <60% TYK2 degradation, and >20% TYK2 degradation) |  |
| CNC(=O)c1nnc(Nc2ccc(C(=O)NCCCCCCNc3cccc4c3C(=O)N(C3CCC(=O)NC3=O)C4=O)cn2)cc1Nc1cccc(-c2ncn(C)n2)c1OC (stereo not shown) [CPD-156, 6-((5-((6-((2-(2,6-Dioxopiperidin-3-yl)-1,3-dioxoisoindolin-4-yl)amino)hexyl)carbamoyl)pyridin-2-yl)amino)-4-((2-methoxy-3-(1-methyl-1H-1,2,4-triazol-3-yl)phenyl)amino)-N-methylpyridazine-3-carboxamide] |  | B (B: <60% TYK2 degradation, and >20% TYK2 degradation) |  |
| CNC(=O)c1nnc(Nc2ccc(C(=O)NCCCCCCCNc3cccc4c3C(=O)N(C3CCC(=O)NC3=O)C4=O)cn2)cc1Nc1cccc(-c2ncn(C)n2)c1OC (stereo not shown) [CPD-157, 6-((5-((7-((2-(2,6-dioxopiperidin-3-yl)-1,3-dioxoisoindolin-4-yl)amino)heptyl)carbamoyl)pyridin-2-yl)amino)-4-((2-methoxy-3-(1-methyl-1H-1,2,4-triazol-3-yl)phenyl)amino)-N-methylpyridazine-3-carboxamide] | A (A: ≥60% TYK2 degradation) | C (C: ≤20% TYK2 degradation) | concentration-dependently reduced the TYK2 proteins levels; also recorded: highly potent in reducing TYK2 protein levels |

Continued, in another order:

| TYK2 Degradation (NOMO-1, 10 nM) | TYK2 Degradation (NOMO-1, 100 nM) | SMILES | Reduction of TYK2 protein levels over a dose range (FIG. 2) (NOMO-1 cells, 0.1, 1, 10, 100 and 1000 nM, 16 hours) |
| --- | --- | --- | --- |
| A (A: ≥60% TYK2 degradation) | A (A: ≥60% TYK2 degradation) | CNC(=O)c1nnc(Nc2ccc(N3CCN(C4CCN(C(=O)CCCCCC(=O)N[C@H](C(=O)N5C[C@H](O)C[C@H]5C(=O)N[C@@H](C)c5ccc(-c6scnc6C)cc5)C(C)(C)C)CC4)CC3)cn2)cc1Nc1cccc(-c2ncn(C)n2)c1OC [CPD-148, 6-((5-(4-(1-(7-(((S)-1-((2S,4R)-4-hydroxy-2-(((S)-1-(4-(4-methylthiazol-5-yl)phenyl)ethyl)carbamoyl)pyrrolidin-1-yl)-3,3-dimethyl-1-oxobutan-2-yl)amino)-7-oxoheptanoyl)piperidin-4-yl)piperazin-1-yl)pyridin-2-yl)amino)-4-((2-methoxy-3-(1-methyl-1H-1,2,4-triazol-3-yl)phenyl)amino)-N-methylpyridazine-3-carboxamide] |  |
|  | A (A: ≥60% TYK2 degradation) | CNC(=O)c1nnc(Nc2ccc(N3CCN(C4CCN(C(=O)CCCCCCC(=O)N[C@H](C(=O)N5C[C@H](O)C[C@H]5C(=O)N[C@@H](C)c5ccc(-c6scnc6C)cc5)C(C)(C)C)CC4)CC3)cn2)cc1Nc1cccc(-c2ncn(C)n2)c1OC [CPD-149, 6-((5-(4-(1-(8-(((S)-1-((2S,4R)-4-Hydroxy-2-(((S)-1-(4-(4-methylthiazol-5-yl)phenyl)ethyl)carbamoyl)pyrrolidin-1-yl)-3,3-dimethyl-1-oxobutan-2-yl)amino)-8-oxooctanoyl)piperidin-4-yl)piperazin-1-yl)pyridin-2-yl)amino)-4-((2-methoxy-3-(1-methyl-1H-1,2,4-triazol-3-yl)phenyl)amino)-N-methylpyridazine-3-carboxamide] |  |
| A (A: ≥60% TYK2 degradation) | A (A: ≥60% TYK2 degradation) | CNC(=O)c1nnc(Nc2ccc(N3CCN(C4CCN(C(=O)CCCCCCCC(=O)N[C@H](C(=O)N5C[C@H](O)C[C@H]5C(=O)N[C@@H](C)c5ccc(-c6scnc6C)cc5)C(C)(C)C)CC4)CC3)cn2)cc1Nc1cccc(-c2ncn(C)n2)c1OC [CPD-150, 6-((5-(4-(1-(9-(((S)-1-((2S,4R)-4-hydroxy-2-(((S)-1-(4-(4-methylthiazol-5-yl)phenyl)ethyl)carbamoyl)pyrrolidin-1-yl)-3,3-dimethyl-1-oxobutan-2-yl)amino)-9-oxononanoyl)piperidin-4-yl)piperazin-1-yl)pyridin-2-yl)amino)-4-((2-methoxy-3-(1-methyl-1H-1,2,4-triazol-3-yl)phenyl)amino)-N-methylpyridazine-3-carboxamide] |  |
| A (A: ≥60% TYK2 degradation) | A (A: ≥60% TYK2 degradation) | CNC(=O)c1nnc(Nc2ccc(N3CCN(C4CCN(C(=O)CCCCCCCCC(=O)N[C@H](C(=O)N5C[C@H](O)C[C@H]5C(=O)N[C@@H](C)c5ccc(-c6scnc6C)cc5)C(C)(C)C)CC4)CC3)cn2)cc1Nc1cccc(-c2ncn(C)n2)c1OC [CPD-151, 6-((5-(4-(1-(10-(((S)-1-((2S,4R)-4-hydroxy-2-(((S)-1-(4-(4-methylthiazol-5-yl)phenyl)ethyl)carbamoyl)pyrrolidin-1-yl)-3,3-dimethyl-1-oxobutan-2-yl)amino)-10-oxodecanoyl)piperidin-4-yl)piperazin-1-yl)pyridin-2-yl)amino)-4-((2-methoxy-3-(1-methyl-1H-1,2,4-triazol-3-yl)phenyl)amino)-N-methylpyridazine-3-carboxamide] |  |
